In article PMC10743026, “Virtual Screening Technology for Two Novel Peptides in Soybean as Inhibitors of α-Amylase and α-Glucosidase” (Foods, 2023):
Where two headings read alike, the source gives them in different places. Ends that are not written are not given here.

What was measured:
α-glucosidase = settings: cited from earlier work
Excerpt: (§1) Peptides are obtained from the decomposition of proteins. Standard methods for preparing peptides in the food industry include enzymatic hydrolysis and microbial hydrolysis.

α-amylase = settings: cited from earlier work
Excerpt: as §1

[1] = target: T1, porcine pancreatic α-amylase (Sus scrofa, UniProt P00690); assay: α-Amylase inhibition assay in vitro (starch/DNS); assay type: biochemical; settings: synthetic peptides; enzyme 0.5 U/mL, starch 10 mg/mL, PBS pH 6.9–7.2; 20 min premix, 10 min at 37 °C; DNS, 540 nm; mean ± standard error of the mean, three parallels
T1 construct: purchased Sigma-Aldrich (St. Louis, MO, USA)
T1 sequence (P00690 16-511): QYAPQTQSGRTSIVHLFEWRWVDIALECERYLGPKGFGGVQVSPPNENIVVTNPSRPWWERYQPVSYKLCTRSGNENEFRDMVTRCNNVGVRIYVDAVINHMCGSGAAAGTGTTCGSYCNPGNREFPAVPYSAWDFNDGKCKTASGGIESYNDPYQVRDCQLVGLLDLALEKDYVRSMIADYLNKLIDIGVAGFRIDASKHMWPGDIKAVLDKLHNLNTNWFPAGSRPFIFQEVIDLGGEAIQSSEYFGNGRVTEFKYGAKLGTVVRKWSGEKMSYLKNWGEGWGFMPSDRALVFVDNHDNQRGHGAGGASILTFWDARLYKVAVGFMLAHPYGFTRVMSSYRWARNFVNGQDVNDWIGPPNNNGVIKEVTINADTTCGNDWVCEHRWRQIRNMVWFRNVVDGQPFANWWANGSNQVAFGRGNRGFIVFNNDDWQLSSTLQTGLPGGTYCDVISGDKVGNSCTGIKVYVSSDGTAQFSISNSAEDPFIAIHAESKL
Excerpt: p-Nitrophenyl-α-D-glucopyranoside (pNPG) and soy protein isolate were obtained from Mackiln (Shanghai, China). DL-dithiothreitol (DTT), iodoacetamide (IAA), formic acid (FA), acetonitrile (ACN), methanol, and porcine pancreatic amylase (PPA) (>10 units/mg) were acquired from Sigma-Aldrich (St. Louis, MO, USA). α-Glucosidase (from Saccharomyces cerevisiae, 26.5 units/mg) and trypsin (from porcine pancreas, 250 units/mg) were obtained from Yuanye Biotech (Shanghai, China). DNS solution was purchased from Rhawn (Shanghai, China). Oligopeptides were prepared with LifeTein (Beijing, China). High-performance liquid chromatography (HPLC)-grade acetonitrile, methanol, and formic acid were obtained from Merck (Darmstadt, Germany). The other chemicals were of analytical grade.
Methods refer to Admassu’s and make appropriate modifications. The starch solution (10 mg/mL), enzyme solution (0.5 U/mL), and soybean peptide solution at different concentrations (5, 10, 15, 20, 25 mg/mL) were prepared, the solvent was PBS (pH 6.9–7.2). […] The absorbance was measured at 540 nm, and the α-amylase inhibition ratio was calculated according to Formula (1):(1) α−Amylase Inhibition Ratio=1−A1−A2/A3−A4×100% where A1, A2, A3, and A4 are the absorbance values of the sample, sample blank, negative control, and blank, respectively.

[2] = peptide from egg albumin, ref [19]
[3] = peptide from Camellia seed cake, ref [15]

For “KLPGF [peptide segment identified in egg albumin]”, the IC50 (α-glucosidase; [2]) is given as 59.5 µM and the IC50 (α-amylase; [2]) is given as 120 µM.
In the case of “GGSK [oligopeptide isolated from Porphyra spp]”, the “inhibition mode on α-amylase” value (α-amylase; peptides from Porphyra spp., ref [11]) is given as “could still bind with the substrate after binding with α-amylase”.
In the case of “LLLLPSYSEF [identified from Camellia seed cake]”, the IC50 (α-glucosidase; [3]) is given as 1110 µM and the “inhibition type on α-glucosidase” value (α-glucosidase; [3]) is given as “mixed inhibition”.
For “GPPGPA [identified from the skin collagen of the Chinese giant salamander]”, the “inhibition type on α-glucosidase” value (α-glucosidase; peptide from skin collagen of Chinese giant salamander, ref [13]) is given as “competitive inhibitory effects”.
LDQTPRVF showed an IC50 [1] of 3080 ± 150 µM.
With SRNPIYSN the IC50 [1] was 5580 ± 130 µM.
